Measured values as given in US20250288543A1, “METHODS OF ENHANCING BENEFICIAL SHORT-CHAIN AND MEDIUM-CHAIN FATTY ACIDS PRODUCTION BY GUT MICROBIOME” (Arizona Board of Regents on Behalf of Arizona State …, priority 2024, published 2025).

What was measured:
[1] = mechanism related to vagal afferent; cited from earlier work
[2] = rat model of diabetes, hexanoate as sole FA source; cited from earlier work
human colon microbiome = assay: In vitro bioreactors inoculated with human feces: chain elongation of acetate with ethanol or lactate to butyrate and caproate; type: cell-based; details: for Methane concentrations: bioreactor headspace, over 7 days, FIG. 4; for Production of MCFAs: pH 6.5 (descending colon), higher concentrations; for SCFA and MCFA production: varied conditions of the large intestine (pH 5.5 and 6.5), FIGS. 6A-6P
Excerpt: In microbial chain elongation, acetate, an abundant short-chain fatty acid in the colon, is elongated via reverse β-oxidation using a more reduced compound, such as ethanol or lactate to butyrate, caproate, and caprylate (C8). FIG. 1 depicts known microbial pathways for production of butyrate in the human colon. FIG. 2 depicts a proposed pathway for production of butyrate (and caproate). In vitro bioreactors were setup using feces composited from multiple human donors. Gas composition in the bioreactors' headspace was analyzed for H2, CO2, and CH4 using gas chromatography (GC). The concentrations of volatile fatty acids (VFAs), lactate, ethanol, were measured using high performance liquid chromatography (HPLC). 16S rRNA gene from Bacteria and Archaea was sequenced using the PacBio. The ability of the human colon microbiome to carry out chain elongation reactions was probed in bioreactor experiments. Bioreactors consisted of 120 mL glass serum bottles containing 50 mL of reduced anaerobic mineral medium prepared using the Hungate technique. The medium contained the following stock solutions per liter: 10 mL of salts, 1 mL of trace element A, 1 mL of trace element B, and 1 mL of vitamin mix. Sodium sulfide nonahydrate (0.2 mM) and L-cysteine (0.4 mM) were used as reducing agents. The medium was buffered with 15 mM 4-(2-hydroxyethyl)-1-piperazineethanesulfonic acid (HEPES) and 15 mM sodium bicarbonate. The medium pH was adjusted to 5.5 or 6.5 using a 10 N NaOH solution. The medium was bottled using a gas composition of 20% CO2 and 80% N2. The experimental conditions and controls are shown in Table 1 and were tested in triplicate. The tested concentrations of short-chain fatty acids (60 mM acetate, 20 mM propionate, 20 mM butyrate) are within the typical range detected in the human colon. For ethanol and lactate (electron donors in chain elongation), we tested 4 mM, a low but physiological relevant concentration and a high concentration of 40 mM. The high concentration of ethanol (40 mM) was selected based on existing chain elongation literature (Yin et al. 2017; Coma et al. 2016; […], and Buisman 2008; Robles et al. 2021; Joshi et al. 2021) and was strategically employed to enhance the activity of putative chain-elongating microorganisms. […] The slurry was prepared by mixing one-part reduced anaerobic mineral medium and one-part feces from a composite sample containing fecal samples from multiple healthy donors as described in the Supporting Information. In one condition, the fecal slurry was filtered through a 200 μm filter before inoculation. In condition with 60 mM acetate+40 mM ethanol+MCE culture at pH 6.5, a chain elongation culture derived from soil (Joshi et al. 2021) was also inoculated. The pH was measured using 0.5 mL samples using an OrionTM Versa Star ProTM Benchtop pH Meter (Thermo Scientific, Waltham, MA, USA) equipped with an Orion economy series pH electrode. The pH meter was calibrated with Orion pH 4.01, 7.00, and 10.01 standard solutions. Samples for HPLC consisted of 0.5 mL of supernatant from bioreactors filtered through a 0.2 μm PDVF filter (MDI Membrane Technologies, Harrisburg, PA, USA). The concentrations of formate, acetate, propionate, isobutyrate, butyrate, isovalerate, valerate, isocaproate, caproate, heptanoate, lactate, ethanol, butanol, and hexanol were determined using a high-performance liquid chromatograph (HPLC, Agilent, Santa Clara, CA, USA) with a photodiode array detector (DAD) set at 210 nm and a refractive index detector (RID). The HPLC was fitted with an Aminex HPX-87H column 300×7.8 mm (Bio-Rad Laboratories, Hercules, CA, USA) and operated with an eluent of 2.5 mM H2SO4 at a flow rate of 0.6 mL per minute for a duration of 80 minutes. The oven temperature was constant at […]. The calibration range for fatty acids was 0.25-10 mM, and the calibration range for the alcohols was 2.5-50 mM. […]

[3] = physiologically relevant concentration of ethanol and lactate, FIGS. 5A and 5B

**Q.** For `CC(=O)O` [acetate], which “Efficacy in suppressing food intake (rank order)” value [1] is on record?
**A.** butyrate>propionate>acetate

**Q.** For `CCCCCC(=O)O` [caproic, caproic acid], which “Contractile function of hearts perfused with glucose alone” value [2] is on record?
**A.** normalized contractile function

**Q.** What does the source list for `CCO` [ethanol]?
**A.** Conversion of acetate and ethanol to butyrate and caproate via chain elongation, time of occurrence (human colon microbiome; acetate + ethanol, fecal bioreactors, FIGS. 3A and 3B): within one day; Chain elongation activity with filtered feces (human colon microbiome; acetate + ethanol, feces filtered to remove larger particles, FIGS. 3C and 3D): did not affect the chain elongation activity; Methane concentrations (human colon microbiome): higher at higher concentrations; Production of MCFAs (human colon microbiome): significant increase; Butyrate production via chain elongation (human colon microbiome; [3]): occurred; Caproate production (human colon microbiome; [3]): caproate was produced only when ethanol was the electron donor; SCFA and MCFA production (human colon microbiome): successfully increases

**Q.** With `CC(O)C(=O)O` (stereo not shown) [lactate] as the compound, how does the “Metabolites produced with lactate as the electron donor” value (human colon microbiome; acetate + lactate, FIG. 3B) read?
**A.** metabolic shift was observed towards propionate and butyrate production

**Q.** What about the Methane concentrations (human colon microbiome) of the same compound?
**A.** higher at higher concentrations

**Q.** And the “Production of butyrate and other SCFAs via chain elongation” value (human colon microbiome; pH 5.5 (ascending colon))?
**A.** a better substrate

**Q.** And the “Production of MCFAs” value (human colon microbiome)?
**A.** significant increase

**Q.** What about the “Butyrate production via chain elongation” value (human colon microbiome; [3]) of the same compound?
**A.** occurred

**Q.** And the “SCFA and MCFA production” value (human colon microbiome)?
**A.** successfully increases

**Q.** Which “Efficacy in suppressing food intake (rank order)” value [1] does the source give for `CCC(=O)O` [propionate] here?
**A.** butyrate>propionate>acetate
